From patent US12291519B2, “2-hydroxycycloalkane-1-carbamoyl” (Idorsia Pharmaceuticals Ltd, priority 2019, dated 2025) come the findings set out here.

One test has as its target human Gal-3 (hGal-3) (Homo sapiens (Human), UniProt P17931). In words: Competitive binding assay: biotinylated hGal-3 binding to microplate-adsorbed asialofetuin (ASF). To be noted: Activity on hGal-3; binding of biotinylated hGal-3 to ASF-coated plates; mean values. Put shortly: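 Serially diluted compounds competed with biotinylated human Gal-3 for binding to plate-adsorbed asialofetuin over 3 h at 4 °C. Bound Gal-3 was detected with streptavidin-peroxidase (80 ng/mL, 1 h, 4 °C) and ABTS substrate. IC50 values are means of several measurements.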

The target in test [1] is human Gal-1 (hGal-1) (Homo sapiens, UniProt P09382). In words: Competitive binding assay: biotinylated hGal-1 binding to microplate-adsorbed asialofetuin (ASF). To be noted: Activity on hGal-1; binding of biotinylated hGal-1 to ASF-coated plates; mean values. The method in brief:
(§1)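 Biotinylated hGal-1 (300–1000 ng/mL; optionally a cysteine-free all-serine variant) incubated 3 h at 4 °C with compound on asialofetuin-coated plates, then streptavidin-peroxidase 1 h at 4 °C. ABTS readout at OD 410 nm after 30–45 min; IC50 given as mean of several runs.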

For test [2], the target named is human Gal-1 (hGal-1). The test is described as above. The settings on record: Activity on hGal-1; binding of biotinylated hGal-1 to ASF-coated plates; mean values. The method in brief:
as §1

human Gal-1 (hGal-1), sequence (P09382 2-135 limits assumed): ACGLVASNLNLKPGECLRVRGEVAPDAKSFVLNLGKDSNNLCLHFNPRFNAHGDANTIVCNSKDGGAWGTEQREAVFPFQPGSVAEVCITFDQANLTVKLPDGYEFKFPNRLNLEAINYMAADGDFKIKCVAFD
human Gal-3 (hGal-3), sequence (P17931 whole entry): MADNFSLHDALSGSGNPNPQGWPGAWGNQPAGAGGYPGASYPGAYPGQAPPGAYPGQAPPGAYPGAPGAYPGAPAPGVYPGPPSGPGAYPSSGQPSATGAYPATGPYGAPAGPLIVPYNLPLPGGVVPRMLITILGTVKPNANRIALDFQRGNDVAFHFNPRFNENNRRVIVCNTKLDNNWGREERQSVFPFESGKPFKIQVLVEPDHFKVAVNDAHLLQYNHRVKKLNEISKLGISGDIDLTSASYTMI
human Gal-1 (hGal-1) (Homo sapiens, UniProt P09382), sequence (P09382 2-135 limits assumed): as the sequence (P09382 2-135 limits assumed) above

Turning to `CO[C@@H]1[C@@H](n2cc(-c3cc(F)c(C)c(F)c3)nn2)[C@@H](O)[C@@H](CO)O[C@H]1C(=O)N(c1cc(F)cc(Br)c1)[C@H]1CCCC[C@@H]1O` [Example 160, (2R,3R,4S,5R,6R)-N-(3-bromo-5-fluorophenyl)-4-(4-(3,5-difluoro-4-methylphenyl)-1H-1,2,3-triazol-1-yl)-5-hydroxy-N-((1S,2S)-2-hydroxycyclohexyl)-6-(hydroxymethyl)-3-methoxytetrahydro-2H-pyran-2-carboxamide], the IC50 (in general, the midpoint of a concentration-inhibition curve) at human Gal-3 (hGal-3) stood at 11 nM; on human Gal-1 (hGal-1) [1] it was 1770 nM.

Regarding `CO[C@@H]1[C@@H](n2cc(-c3ccc(Cl)cc3)nn2)[C@@H](O)[C@@H](CO)O[C@H]1C(=O)N(c1cc(Cl)cc(C#N)c1)[C@H]1CCCC[C@@H]1O` [Example 201, (2R,3R,4S,5R,6R)-N-(3-chloro-5-cyanophenyl)-4-(4-(4-chlorophenyl)-1H-1,2,3-triazol-1-yl)-5-hydroxy-N-((1S,2S)-2-hydroxycyclohexyl)-6-(hydroxymethyl)-3-methoxytetrahydro-2H-pyran-2-carboxamide], the IC50 at human Gal-3 (hGal-3) amounted to 20 nM; on human Gal-1 (hGal-1) [2] it was 242 nM.

Regarding `CO[C@@H]1[C@@H](n2cc(-c3ccc(Br)cc3)nn2)[C@@H](O)[C@@H](CO)O[C@H]1C(=O)N(c1cc(Cl)cc(C#N)c1)[C@H]1CCCC[C@@H]1O` [Example 202, (2R,3R,4S,5R,6R)-4-(4-(4-bromophenyl)-1H-1,2,3-triazol-1-yl)-N-(3-chloro-5-cyanophenyl)-5-hydroxy-N-((1S,2S)-2-hydroxycyclohexyl)-6-(hydroxymethyl)-3-methoxytetrahydro-2H-pyran-2-carboxamide], the IC50 at human Gal-3 (hGal-3) came out at 21 nM; at human Gal-1 (hGal-1) [2], 341 nM.

`CO[C@@H]1[C@@H](n2cc(-c3cc(F)c(N4CCOCC4)c(F)c3)nn2)[C@@H](O)[C@@H](CO)O[C@H]1C(=O)N(c1cc(Cl)cc(Cl)c1)[C@H]1CCCC[C@@H]1O` [Example 203]: the concentration for half-maximal inhibition (IC50) at human Gal-3 (hGal-3) was 24 nM; on human Gal-1 (hGal-1) [2], 678 nM.

Turning to `CO[C@@H]1[C@@H](n2cc(-c3cc(F)c(NCCCO)c(F)c3)nn2)[C@@H](O)[C@@H](CO)O[C@H]1C(=O)N(c1cc(Cl)cc(Cl)c1)[C@H]1CCCC[C@@H]1O` [Example 204, (2R,3R,4S,5R,6R)—N-(3,5-dichlorophenyl)-4-(4-(3,5-difluoro-4-((3-hydroxypropyl)amino)phenyl)-1H-1,2,3-triazol-1-yl)-5-hydroxy-N-((1S,2S)-2-hydroxycyclohexyl)-6-(hydroxymethyl)-3-methoxytetrahydro-2H-pyran-2-carboxamide], the IC50 at human Gal-3 (hGal-3) was determined as 21 nM; at human Gal-1 (hGal-1) [2] it was 273 nM.

In the case of `COc1cc(C#N)cc(N(C(=O)[C@@H]2O[C@H](CO)[C@H](O)[C@H](n3cc(-c4ccc(C#N)c(F)c4)nn3)[C@H]2OC)[C@H]2CCCC[C@@H]2O)c1` [Example 205, (2R,3R,4S,5R,6R)-4-(4-(4-cyano-3-fluorophenyl)-1H-1,2,3-triazol-1-yl)-N-(3-cyano-5-methoxyphenyl)-5-hydroxy-N-((1S,2S)-2-hydroxycyclohexyl)-6-(hydroxymethyl)-3-methoxytetrahydro-2H-pyran-2-carboxamide], the IC50 turned out to be 87 nM on human Gal-3 (hGal-3) and 1820 nM at human Gal-1 (hGal-1) [2].

Consider `CO[C@@H]1[C@@H](n2cc(-c3ccc(C#N)c(F)c3)nn2)[C@@H](O)[C@@H](CO)O[C@H]1C(=O)N(c1cc(C)cc(C#N)c1)[C@H]1CCCC[C@@H]1O` [Example 206, (2R,3R,4S,5R,6R)-4-(4-(4-cyano-3-fluorophenyl)-1H-1,2,3-triazol-1-yl)-N-(3-cyano-5-methylphenyl)-5-hydroxy-N-((1S,2S)-2-hydroxycyclohexyl)-6-(hydroxymethyl)-3-methoxytetrahydro-2H-pyran-2-carboxamide], for which the IC50 at human Gal-3 (hGal-3) was 126 nM; on human Gal-1 (hGal-1) [2], 1340 nM.

Take `CO[C@@H]1[C@@H](n2cc(-c3cc(F)c(F)c(F)c3)nn2)[C@@H](O)[C@@H](CO)O[C@H]1C(=O)N(c1cccc(Cl)c1)[C@H]1CCCCC[C@@H]1O` [Example 207, (2R,3R,4S,5R,6R)-N-(3-chlorophenyl)-5-hydroxy-N-((1S,2S)-2-hydroxycycloheptyl)-6-(hydroxymethyl)-3-methoxy-4-(4-(3,4,5-trifluorophenyl)-1H-1,2,3-triazol-1-yl)tetrahydro-2H-pyran-2-carboxamide]: the 50% inhibitory concentration (IC50) at human Gal-3 (hGal-3) turned out to be 49 nM; on human Gal-1 (hGal-1) [2], 1790 nM.

As to `CO[C@@H]1[C@@H](n2cc(-c3cc(F)c(F)c(F)c3)nn2)[C@@H](O)[C@@H](CO)O[C@H]1C(=O)N(c1cc(Cl)cc(Cl)c1)[C@H]1CCCCC[C@@H]1O` [Example 208, (2R,3R,4S,5R,6R)-N-(3,5-dichlorophenyl)-5-hydroxy-N-((1S,2S)-2-hydroxycycloheptyl)-6-(hydroxymethyl)-3-methoxy-4-(4-(3,4,5-trifluorophenyl)-1H-1,2,3-triazol-1-yl)tetrahydro-2H-pyran-2-carboxamide], the half-maximal inhibitory concentration (IC50) worked out at 62 nM at human Gal-3 (hGal-3) and 586 nM at human Gal-1 (hGal-1) [2].

For “(2R,3R,5R,6R)—N-(3,5-dichlorophenyl)-5-hydroxy-N-(1S,2S)-2-hydroxycyclohexyl-3-(2-hydroxyethoxy)-6-(hydroxymethyl)-4-(4-(3,4,5-trifluorophenyl)-1H-1,2,3-triazol-1-yl)tetrahydro-2H-pyran-2-carboxamide [Example 196]”, the IC50 on human Gal-3 (hGal-3) was determined as 21 nM; at human Gal-1 (hGal-1) [1], 161 nM.
